Data: the METLIN SMRT retention time set (Domingo-Almenara et al. 2019)

Test: gradient 5% acetonitrile 3 min, to 50% in 2 min, to 85% in 15 min, held 3 min, 100 µL/min
Conditions: column: Zorbax Extend-C18 2.1 x 50 mm; eluents: water / acetonitrile, 0.1% formic acid
Method in brief: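 Retention times come from adduct peaks that were picked computationally and then checked by hand. The standards, pure and pooled in mixtures of ~100 molecules, were run on a Zorbax Extend-C18 column (2.1 × 50 mm, 1.8 μm) at 100 μL/min with water and acetonitrile, each with 0.1% formic acid. Detection was by quadrupole time-of-flight mass spectrometry in positive and negative ionization mode, with a dead volume of 40 μL and a dwell volume of 900 μL.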

Row | Compound | RP-LC retention time [s]
1 | CCNC(=O)C1CCN(S(=O)(=O)c2cc(Cl)ccc2OC)CC1 | 726
2 | Cc1ccc(-c2nc(-c3ccc4c(c3)nc(C)c(=O)n4C)no2)cc1 | 1090
3 | CCCOc1ccc(C(=O)N(Cc2ccc(Br)o2)C2CCS(=O)(=O)C2)cc1 (stereo not drawn) | 1010
4 | O=C(NCc1cccs1)NCC1(CO)CC1 | 592
5 | COc1cc2c(cc1C(=O)NCc1ccc3c(c1)CCCO3)OCCCO2 | 920
6 | O=[N+]([O-])c1cccc(C2SCCN2S(=O)(=O)c2ccc(Br)cc2)c1 (stereo not drawn) | 1020
7 | COc1cccc2c(C)nc(NC3=NCN(Cc4cccnc4)CN3)nc12 | 567
8 | COC[C@@H]1CN(Cc2cccc(C#N)c2)C[C@H]1c1ccccn1 | 608
9 | CC(C)(CO)NCc1ccc(-c2ccc(Cl)cc2Cl)o1 | 685
10 | CCCS(=O)(=O)c1nc2ccc(NS(=O)(=O)c3ccc(C(C)C)cc3)cc2s1 | 1050
11 | O=C(CC1CCCC1)N1CCCC(c2nn[nH]n2)C1 (stereo not drawn) | 660
12 | CC1CCCN(C(=O)C2CC(=O)N(c3ccc4c(c3)CCN4C(=O)C3CC3)C2)C1 (stereo not drawn) | 758
13 | Cc1cccc(Oc2nccnc2N2CCC(C(=O)NC3CCCCCC3)CC2)c1 | 1110
14 | Cc1ccc(NC(=O)C2(C)Oc3cccnc3N(C)C2=O)cc1 (stereo not drawn) | 845
15 | CCOC(=O)c1[nH]c(C)c(C(=O)N2CCC(CC(=O)NC(C)C)CC2)c1C | 643
16 | CCCN1C(=O)c2cc(S(=O)(=O)Nc3ccccc3OC)ccc2Oc2cccnc21 | 1080
17 | CCN(CC)C(=O)c1ccc2oc(CN3CCN(C(=O)NC4CCCC4)CC3)nc2c1 | 630
18 | O=C(NCc1ccccc1)C1Cc2ccccc2CN1S(=O)(=O)c1ccccc1 (stereo not drawn) | 981
19 | CC1CCN(S(=O)(=O)c2ccc(-c3nnc(C(=O)N4CCCC4)o3)cc2)CC1 | 941
20 | COc1ccc(NC(=O)c2ccc(-c3ccsc3)nc2)cc1 | 862
21 | CCc1ccc(-c2cn3ccn(-c4ccc(OC)c(OC)c4)c(=O)c3n2)cc1 | 840

Row | Compound | RP-LC retention time [s]
22 | O=C(NC1CC1)[C@@H]1C[C@H](Oc2ccccc2)CN1C(=O)CCCc1c[nH]c2ccccc12 | 834
23 | Cc1noc(C2CN(C(=O)NC3CCCC3)CC23CCOCC3)n1 (stereo not drawn) | 633
24 | O=C(Cc1ccc(Cl)cc1)N1CC(n2cnnc2C2CC2)C1 | 649
25 | COc1cccc(-c2nc(-c3ccc4oc(C)nc4c3)no2)c1OC | 1020
26 | O=C(NC1CCN(Cc2ccccc2)CC1)c1ccccc1Cl | 549
27 | O=C(CN1CCN(Cc2cccc(Cl)c2)C1=O)NCC1CCCCC1 | 920
28 | C[C@H](NC(=O)C1CCCN(S(=O)(=O)c2ccc(F)cc2)C1)C(=O)O (stereo partly drawn) | 669
29 | Cc1ccc(N2CN(CCC(C)C)S(=O)(=O)c3cccnc32)cc1 | 1150
30 | CCc1nc(-c2ccc(-c3noc(-c4ccncc4)n3)cc2)cs1 | 1230
31 | CC(=O)NC(CCS(C)(=O)=O)C(=O)Nc1ccc(-c2nc3ccc(C)cc3s2)cc1 (stereo not drawn) | 741
32 | COc1cccc(S(=O)(=O)NCc2ccc(C(=O)Nc3cccc(Cl)c3)cc2)c1 | 922
33 | CC(C)Oc1ccc(CNS(=O)(=O)c2cc(-c3nc(C(C)(C)C)cs3)cs2)cc1 | 1320
34 | COc1cc(Cl)c(NS(=O)(=O)c2c(C)sc(C)c2-c2cc(C(F)(F)F)on2)c(OC)c1 | 1190
35 | CCCCN1C(=O)C2(NCCc3c2[nH]c2ccc(OC)cc32)c2cc(Br)ccc21 (stereo not drawn) | 763
36 | COc1ccc(CCS(=O)(=O)NCC2(c3ccc(F)cc3)CC2)cc1 | 950
37 | CC1CCN(C(=O)c2cc3c(s2)CCN(C(=O)c2ccc(Cl)cc2)C3)CC1 | 987
38 | O=C(NCc1cc(F)cc(F)c1)c1c(O)c2cccnc2n(-c2ccc(F)cc2)c1=O | 1180
39 | COCc1cc(=O)n(CC(=O)Nc2ccc(C)cc2C)c(N)n1 | 584
40 | COc1ccc(OC)c(C(O)Cn2ccn3nc(-c4ccc(C(C)C)cc4)cc3c2=O)c1 (stereo not drawn) | 1090
41 | COc1cccc(-c2noc(Cn3c(=O)n(-c4ccc(Cl)cc4)c(=O)c4sccc43)n2)c1 | 1050

Other lines, results leading:

Row | RP-LC retention time [s] | Compound
42 | 1120 | Cc1ccc(-c2csc3c(=O)n(CC(=O)N4CCOc5ccc(C)cc54)cnc23)cc1
43 | 888 | Cc1ccc(C)c(C(=O)Nc2ccc3c(c2)Sc2ncccc2C(=O)N3C)c1
44 | 1050 | CCOc1ccc(-c2noc(Cn3c(=O)n(CC4CCCO4)c(=O)c4ccccc43)n2)cc1 (stereo not drawn)
45 | 799 | CC1CCN(C(=O)C2=NN(C)c3ccccc3S2(=O)=O)CC1
46 | 856 | COc1nc2ccccc2nc1N1CCCC(C(=O)N2CCCC2)C1 (stereo not drawn)
47 | 804 | CCc1ccccc1N1C(=O)CN(S(C)(=O)=O)CC1(C)C(=O)NCc1ccccc1 (stereo not drawn)
48 | 612 | COc1ccc(-n2cc(C(=O)N3CCC(C(N)=O)CC3)nn2)cc1
49 | 777 | CCC(C)C(=O)N1CCCN(C2=NS(=O)(=O)C(c3ccccc3)=C2C)CC1 (stereo not drawn)
50 | 782 | CCn1nc(C)c2c(-c3ccccc3)cc(OC(C)C(=O)NCc3ccco3)nc21 (stereo not drawn)
51 | 760 | O=C(Cn1nc2c3ccc(F)cc3ncn2c1=O)Nc1ccc(Cl)cc1
52 | 988 | O=S(=O)(CCc1ccccc1)N1CCCn2nc(-c3cccs3)cc2C1
53 | 613 | O=C(c1csc(-c2ccc(N3CCCC3)nc2)n1)N1CCCCC1
54 | 748 | CCCNC(=O)C1CCCN(c2ccc(SCC(=O)Nc3cc(F)ccc3Cl)nn2)C1 (stereo not drawn)
55 | 671 | CC(C)n1c(SCC(=O)N2CCCC2)nnc1-c1ccc2c(c1)OCCCO2
56 | 864 | O=C(Cn1nc(N2CCOCC2)c2ccccc2c1=O)Nc1ccc(Br)cc1
57 | 812 | Cc1cc2c(cc1S(=O)(=O)N1CCCC1C(=O)NCc1ccccc1Cl)OC(C)C(=O)N2 (stereo not drawn)
58 | 606 | CC(C)CN1CCCC(COc2ccccc2C(=O)NC2CC2)C1 (stereo not drawn)
59 | 832 | COc1ccc(N2CCN(C(=O)c3ccc4c(c3)N(C)C(=O)C3CCCCN43)CC2)cc1 (stereo not drawn)
60 | 795 | Cc1ccc(F)cc1S(=O)(=O)N1CC(F)(F)C[C@H]1CN1CCc2ccccc2C1
61 | 1260 | CCN(C(=O)c1ccccc1C)c1nc(-c2ccccc2)cs1
62 | 600 | CC(=O)c1cccc(NC(=O)N2CCN(c3cnn4c(C)nnc4c3)CC2)c1
63 | 729 | COc1ccc(NC(=O)C2CCN(S(=O)(=O)c3cc(C(=O)N4CCCC4)n(C)c3)CC2)cc1
64 | 670 | Cc1ccsc1C(=O)Nc1cccn2c(C)nnc12
65 | 756 | Cn1c(=O)c2nc(S(=O)(=O)CCC(=O)Nc3ccc(F)c(Cl)c3)n(C)c2n(C)c1=O

Row | RP-LC retention time [s] | Compound
66 | 994 | CCc1nc(-c2csc(S(=O)(=O)N3CCC(C(=O)NCc4ccc(Cl)cc4)CC3)c2)no1
67 | 709 | Cc1ccnc(N2CCCC(C(=O)NCc3ccc(F)cc3)C2)n1 (stereo not drawn)
68 | 672 | Cc1cc(C)n(Cc2ccc(C(=O)N3CCN(Cc4noc5ccccc45)CC3)o2)n1
69 | 759 | CCn1cc(C2=CCN(C(=O)Nc3ccc(OC)c(OC)c3)CC2)c2cccnc21
70 | 705 | CCCNC(=O)C1CCCN(c2nc3ncn(CC(=O)N4CCc5ccccc5C4)c(=O)c3s2)C1 (stereo not drawn)
71 | 953 | CCN(Cc1ccccc1)C(=O)C1CCN(S(=O)(=O)c2ccc3c(c2)sc(=O)n3CC)CC1
72 | 660 | CCn1c(C(=O)NCCCN2CCCC(C)C2)c(N2CCCC2=O)c2cc(F)ccc21 (stereo not drawn)
73 | 1060 | COc1cc(Cl)ccc1-c1nc(-c2ccc3c(c2)oc(=O)n3C)no1
74 | 962 | CCn1c(=O)sc2cc(S(=O)(=O)N3CCC(C(=O)Nc4cccc(C)c4)CC3)ccc21
75 | 1040 | Cc1nc(-c2csc(S(=O)(=O)N3CCCC(C(=O)Nc4ccc(Cl)cc4)C3)c2)no1 (stereo not drawn)
76 | 566 | CCN(CC)C(=O)N1CC(c2nc(-c3ccncc3)nn2C)C1
77 | 656 | Cc1cc(C(=O)N2CCCn3cc(-c4ccccc4F)nc32)nn1C
78 | 713 | CCc1ccc(-c2cc3c(=O)n(CC(=O)NCC4CCCN4CC)nc(C)n3n2)cc1 (stereo not drawn)
79 | 1130 | COc1ccc(S(=O)(=O)N2CCC(c3cnn(-c4cccc(C)c4)c3)CC2)cc1
80 | 752 | O=S(=O)(c1cccc(F)c1)N1CCC(Cc2nncn2-c2ccccc2)C1 (stereo not drawn)
81 | 897 | CC(C)NC(=O)c1ccc(OCC2CCN(C(=O)C3(c4ccccc4)CC3)CC2)cc1
82 | 698 | Fc1ccccc1N1CCN(Cc2nc(-c3ccc(N4CCCC4)nc3)no2)CC1
83 | 656 | O=C(Nc1ccccc1F)N1CCCC(Cn2c(C3CC3)nc3cccnc32)C1 (stereo not drawn)
84 | 856 | COc1ccccc1-c1noc(C2CCCN2C(=O)c2cccc(F)c2)n1 (stereo not drawn)
85 | 757 | CCN1c2cc(Cl)ccc2C(=O)NC12CCN(C(=O)NCc1ccccc1)CC2
86 | 894 | Cc1nc(CC(=O)Nc2nc(-c3ccccc3)c(C)s2)cs1
87 | 740 | NC(=O)c1cc(-c2ccccc2F)nc2ccccc12
88 | 621 | CNC(=O)C1CCCN(c2nc3ncn(CC(=O)NCc4cccc(OC)c4)c(=O)c3s2)C1 (stereo not drawn)
